Consider one molecule from US10894035B2, “Use of indole compounds to stimulate the immune system” (priority 2015, dated 2021).

Experiment [1] has as its target T1, sPLA2GIID (Homo sapiens, UniProt Q9UNK4).
T1 sequence (Q9UNK4 21-145): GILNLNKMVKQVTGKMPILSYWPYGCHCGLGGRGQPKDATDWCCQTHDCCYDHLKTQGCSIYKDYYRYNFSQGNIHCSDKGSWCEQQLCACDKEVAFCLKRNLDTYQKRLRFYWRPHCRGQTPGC
The experiment is described as follows: sPLA2 specificity panel (Table 1). In kind it is biochemical. As to conditions: panel of secreted PLA2, result in words.

The target of experiment [2] is T2, sPLA2G1B contained in plasma of viremic patients (Homo sapiens, UniProt P04054).
T2 construct: CD4 lymphocytes purified from healthy donors were exposed to sera from viremic HIV-infected patients at 3% dilution; from tissue; host or cells: plasma/sera of viremic HIV-infected patients, applied to CD4 T cells of healthy donors
T2 sequence (P04054 23-148): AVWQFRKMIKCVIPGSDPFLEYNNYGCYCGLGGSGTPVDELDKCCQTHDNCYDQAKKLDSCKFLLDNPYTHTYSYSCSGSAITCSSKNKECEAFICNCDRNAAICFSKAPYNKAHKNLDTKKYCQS
The experiment is described as follows: Bioassay of IL-7-induced pSTAT5 nuclear translocation in healthy-donor CD4 T cells exposed to plasma/sera of viremic HIV-infected patients. In kind it is cell-based. The conditions noted are these: for reversion of inhibition of pSTAT5 nuclear translocation: 50 μM compound; for reversal of plasma/sera-induced inhibition of IL-7-induced NT pSTAT5: 50 microM compound. The protocol:
Five sera were tested and the results are given as the median +/−SD.
Viremic patients (VP) included in the study had been HIV-positive for more than one year. […] All blood samples from VP were drawn at Hôpital Bicêtre or Centre Hospitalier de Gonesse.
(§1) Inhibition of IL-7-induced phosphorylated STAT5 nuclear translocation (NTpSTAT) was measured as follows: VP plasma (5 or 10%) was first incubated with purified HD CD4 T cells (20 min) before stimulation by IL-7 (2 nM, 15 min.). Cells were then plated on polylysine coated glass slides before fixation by PFA (1.5%) and permeabilization by methanol (90% at −20° C.). pSTAT5 was then stained by rabbit anti-STAT5 and labeled with goat anti-rabbit-Atto642. The cells were analyzed by pulsed STED microscopy and the number of nuclei expressing pSTAT5 were counted.
We have already shown that sPLA2G1B contained in plasma of viremic patients through induction of aMMD induces a blockade of IL-7-induced nuclear translocation of phospho STAT5 (NT pSTAT5).
The effects of plasma from various HIV viremic patients (at least 5) were first titrated on the inhibition of IL-7-induced NTpSTAT5. The inhibition is measurable at 1% dilution of the plasma and the effect is maximum at 10% of the plasma. Consequently, in the experiments we used the different plasma at 3% dilution which gives between 30 to 70% of the maximum inhibition. […] The inhibition obtained with the recombinant enzyme reaches a plateau corresponding to a maximum inhibition of around 80%. By contrast, the plateau obtained when the plasma is used is around 90% inhibition, or more (compare data of FIGS. 1 and 2 with data FIG. 3).
In a further study, the plasma from 5 additional HIV-infected patients was tested. […] 100% inhibition of nuclear translocation of pSTAT5 is observed (see FIG. 4).

In experiment [3] the target is T3, sPLA2GIIE (Homo sapiens, UniProt Q9NZK7).
T3 sequence (Q9NZK7 20-142): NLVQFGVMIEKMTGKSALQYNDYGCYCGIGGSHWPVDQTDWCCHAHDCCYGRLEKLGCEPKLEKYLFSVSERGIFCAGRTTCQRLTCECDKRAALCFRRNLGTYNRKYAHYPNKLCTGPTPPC
Nature of the experiment: sPLA2 specificity panel (Table 1). It counts as biochemical. As to conditions: panel of secreted PLA2, result in words.

The target in experiment [4] is sPLA2G1B (Homo sapiens, UniProt P04054). The experiment is described as follows: E. coli membrane sPLA2 activity assay ([3H]oleic acid release). In kind it is biochemical.
Sequence of sPLA2G1B (P04054 23-148): as the sequence (P04054 23-148) above
Experimental: The activity of compounds of formula A towards sPLA2G1B can be tested and verified using the E. coli membrane assay described below:
The assay is based on the ability of E. coli membranes to incorporate exogenously added fatty acids such as oleic acid (OA). The use of radiolabelled OA allows to follow the incorporation of this fatty acid into membrane phospholipids of E. Coli and its release upon PLA2-mediated hydrolysis of these membranes. Preincubation of the samples, before the assay, with a specific inhibitor or a neutralizing specific antibody directed against the given sPLA2 can indicate which sPLA2 type is detected.
An overnight culture of E. coli was diluted 1:20 in Luria Broth (LB) medium and incubated at 37° C. for 5 h with vigorous shaking in the presence of 1 mCi/ml [3H]OA (NET 289, NEN, 5 mCi/ml). […]
The reaction was carried out in a 37° C. water bath for 30 min and stopped with stop buffer containing 0.1 M EDTA and 0.2% free-fatty acids BSA. Then the tubes were centrifuged to spin down E. Coli membranes and aliquotes of supernatants were counted to monitor the [3H]OA released from these membranes. […]
The sPLA2 activity (A) is calculated as follows: A=A1−A2/B×100. […]
A is expressed as the % hydrolysis of the total radioactivity incorporated in the E. coli membranes.
The target of experiment [5] is T4, sPLA2GXIIA (Homo sapiens, UniProt Q9BZM1).
T4 sequence (Q9BZM1 23-189): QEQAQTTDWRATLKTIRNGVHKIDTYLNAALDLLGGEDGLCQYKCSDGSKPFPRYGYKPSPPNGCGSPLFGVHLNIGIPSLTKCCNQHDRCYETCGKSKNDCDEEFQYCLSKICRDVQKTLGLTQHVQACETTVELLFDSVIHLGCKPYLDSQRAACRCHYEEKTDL
The experiment is described as follows: sPLA2 specificity panel (Table 1). As to conditions: panel of secreted PLA2, result in words. It counts as biochemical.

For experiment [6], the target named is T5, Recombinant PLA2G1B (Homo sapiens, UniProt P04054).
T5 construct: made in house; host or cells: E. coli (inclusion bodies, urea-solubilized, renatured, HPLC-purified)
T5 sequence (P04054 23-148): as the sequence (P04054 23-148) above
The experiment is described as follows: Bioassay of IL-7-induced pSTAT5 nuclear translocation in CD4 T cells exposed to recombinant PLA2G1B. In kind it is cell-based. The protocol:
sPLA2G1B was produced in E. Coli. Inclusion bodies were solubilized in urea and afterwards renatured. sPLA2G1B was further purified by HPLC. Homogeneity of the preparations was verified by MassSpectrometry (Malditoff). The specific activity of the enzyme was always measured and compared to standard preparations.
as §1
The experiment was repeated twice. From the experimental data we derived the corresponding theoretical curve that gives the IC50.

The target of experiment [7] is sPLA2GIB (Homo sapiens, UniProt P04054). The experiment is described as follows: sPLA2 specificity panel (Table 1). In kind it is biochemical. As to conditions: panel of secreted PLA2, result in words.
Sequence of sPLA2GIB (P04054 23-148): as the sequence (P04054 23-148) above
The target of experiment [8] is T6, sPLA2GIII (Homo sapiens, UniProt Q9NZ20).
T6 sequence (Q9NZ20 20-509): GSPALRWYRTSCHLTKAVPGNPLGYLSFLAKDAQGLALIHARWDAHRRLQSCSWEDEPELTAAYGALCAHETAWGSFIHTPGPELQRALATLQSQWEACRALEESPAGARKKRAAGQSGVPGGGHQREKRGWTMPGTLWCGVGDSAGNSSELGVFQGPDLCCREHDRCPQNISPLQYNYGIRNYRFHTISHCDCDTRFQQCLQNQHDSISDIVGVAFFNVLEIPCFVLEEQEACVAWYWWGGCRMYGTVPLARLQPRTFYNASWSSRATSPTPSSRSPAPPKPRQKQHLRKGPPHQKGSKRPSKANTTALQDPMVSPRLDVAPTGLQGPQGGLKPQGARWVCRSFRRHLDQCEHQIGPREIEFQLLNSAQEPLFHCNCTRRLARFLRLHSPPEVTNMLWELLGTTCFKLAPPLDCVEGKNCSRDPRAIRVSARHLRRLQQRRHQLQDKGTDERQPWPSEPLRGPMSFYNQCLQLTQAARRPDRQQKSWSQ
Nature of the experiment: sPLA2 specificity panel (Table 1). As to conditions: panel of secreted PLA2, result in words. In kind it is biochemical.

Experiment [9] deals with T7, sPLA2GV (Homo sapiens, UniProt P39877).
T7 sequence (P39877 21-138): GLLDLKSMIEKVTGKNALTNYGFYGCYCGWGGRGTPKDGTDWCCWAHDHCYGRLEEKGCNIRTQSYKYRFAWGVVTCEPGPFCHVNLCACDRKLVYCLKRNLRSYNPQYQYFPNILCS
The experiment is described as follows: sPLA2 specificity panel (Table 1). In kind it is biochemical. As to conditions: panel of secreted PLA2, result in words.
Text: IC50 values for a panel of secreted Phospholipase A2 (sPLA2) are shown.

The mark [10] stands for this setting: recombinant PLA2G1B 75 nanoM, pre-exposed 30 mn to compound, FIG. 1.

A value given as a limit tells only on which side of the number the result lay.

As to `CCc1c(C(=O)C(N)=O)c2c(OCC(=O)O)cccc2n1Cc1ccccc1` [Compound B], the “IC50 sPLA2GIID” value in experiment [1] is recorded as “significant IC50”. Further, the “reversion of inhibition of pSTAT5 nuclear translocation” value in [2] (1% plasma, FIG. 4) was “the reversion is complete”; in experiment [2] (3% plasma, FIG. 4), “about 90%”. For the same molecule, the “reversal of plasma/sera-induced inhibition of IL-7-induced NT pSTAT5” value in [2] (sera at 1% or 3% dilution, 5 additional patients, FIG. 4) is reported as “completely reverse this inhibition”; in [2] (sera at 1% or 3% dilution, 5 additional patients, FIG. 4, listed as compound B), “totally reversed this inhibition”; in [2] (sera at 3% dilution, five sera, FIG. 3), “revert the inhibitory activity of the plasma”; in [2] (sera at 3% dilution, five sera, FIG. 3, listed as compound B), “totally reversed this inhibition”. For the same molecule, the “plateau inhibition when plasma is used” value in experiment [2] (plasma of viremic patients) is no less than 90%. Besides, the “IC50 sPLA2GIIE” value in [3] is recorded as “significant IC50”. For the same molecule, the “inhibitory effect on sPLA2G1B activity” value in experiment [4] is “particularly strong inhibitory effect”. The “recognition/binding of sPLA2GXIIA” value in experiment [5] was “does not recognize or bind”. For the same molecule, the 50% inhibitory concentration (IC50) (in general, the concentration that inhibits the measured activity by half) in [6] stood at 6.01 µM. In addition, the “concentration at which inhibitory effects are maximum” value in experiment [6] (setting [10]) is 8 µM. In addition, in [6] (setting [10]), the “concentration at which inhibitory effects begin” value was determined as 5 µM. Also, the “plateau, maximum inhibition” value in experiment [6] (recombinant enzyme in serum free buffer) was “around 80%”. The “IC50 sPLA2GIB” value in [7] is reported as “significant IC50”. The “recognition/binding/activity towards sPLA2GIII (group III PLA2)” value is reported as “does not recognize or bind” in experiment [8] and “no activity” in experiment [8] (listed as compound B). The “IC50 sPLA2GV” value in experiment [9] is “significant IC50”.
